Experimental data: patent publication US7695930B2, “Method for the detection, identification and/or quantification of microoganisms with peptidase activity using phenoxazinone derivatives as enzyme substrates” (Biomerieux, priority 2003, dated 2010)

Assays:
Type in all cases: cell-based
Klebsiella pneumoniae = assay: Alanyl-peptidase detection on agar medium (Example 13); conditions: 25 mg/l
Method: (§1) The detection media were prepared by mixing 3.6 g of biogelytone (bioMérieux), 2.16 g of meat extract (bioMérieux), 1.26 g of malt extract (bioMérieux), 5.76 g of NaCl (Merck) and 10.8 g of agar (bioMérieux).
(§2) 720 ml of osmosed water were added to the powder, and the mixture was then melted in a waterbath at […]. The product was separated into two flasks, each of 360 ml. Autoclaving was carried out at 121° C. for 15 min and the product was cooled to […]. in a waterbath.
(§3) L-Alanyl-7-amino-4-methylcoumarin (Ala-AMC, Bachem) was then added to the first flask as a control, at the final concentration of 50 mg/l, and L-alanyl-9-aminobenzo[a]phenoxazin-5-one (Ala-ABP, substrate of the invention obtained in Example 2, in which the amino acid is L-alanine), was then added to the second flask at the final concentration of 25 mg/l.
(§4) The size of the colonies, their coloration and also the intensity of this coloration were noted.

Listeria innocua = assay: as above; conditions: 25 mg/l
Method: as §1, §2, §3, §4

Escherichia coli = assay: as above; conditions: 25 mg/l
Method: as §1, §2, §3, §4

Candida albicans = assay: as above; conditions: 25 mg/l
Method: as §1, §2, §3, §4

Serratia liquefaciens = assay: as above; conditions: 25 mg/l
Method: as §1, §2, §3, §4

Enterococcus faecalis = assay: as above; conditions: 25 mg/l
Method: as §1, §2, §3, §4

Edwardsiella tarda = assay: as above; conditions: 25 mg/l
Method: as §1, §2, §3, §4

[1] = system: Corynebacterium Pseudodiphteriticum; assay: as above; conditions: 25 mg/l
Method: as §1, §2, §3, §4

[2] = system: Staphylococcus epidermidis; assay: as above; conditions: 25 mg/l
Method: as §1, §2, §3, §4

Candida krusei = assay: as above; conditions: 25 mg/l
Method: as §1, §2, §3, §4

Bacillus subtilis = assay: as above; conditions: 25 mg/l
Method: as §1, §2, §3, §4

Acinetobacter baumanii = assay: as above; conditions: 25 mg/l
Method: as §1, §2, §3, §4

Saccharomyces cerevisiae = assay: as above; conditions: 25 mg/l
Method: as §1, §2, §3, §4

[3] = system: Enterobacter clocae (NCTC 11936); assay: Alanine peptidase detection, substrates with one to three amino acids (Example 15); design: key to color of the colony: R=pink; RP=pale pink; I=colorless; conditions: 50 mg/l
Method: (§5) 1000 ml of Columbia medium was melted in a waterbath at 100° C. and autoclaved at 121° C. for 15 min. It was then cooled to 50° C. in a waterbath.
(§6) This medium was separated into 5 flasks of 200 ml, and then, added at 50° C., as substrates, was that of Example 2 for which A is: • medium 1: L-alanine (L-alanine-9-aminobenzo[a]phenoxazin-5-one or A-ABP), • medium 2: L-alanine-L-alanine (L-alanine-L-alanine-9-aminobenzo-[a]phenoxazin-5-one or AA-ABP), • medium 3: L-alanine-L-alanine-L-alanine (L-alanine-L-alanine-L-alanine-9-aminobenzo[a]phenoxazin-5-one or AAA-ABP), • medium 4: L-alanine-glycine (L-alanine-glycine-9-aminobenzo[a]phenoxazin-5-one or AG-ABP), and • medium 5: glycine-L-alanine (glycine-L-alanine-9-aminobenzo[a]phenoxazin-5-one or GA-ABP), each substrate being solubilized in DMSO and used at a final concentration of 50 mg/l.
(§7) The medium was then poured into Petri dishes.
(§8) Nine microorganism strains derived from the Applicant's collection, suspended in physiological saline, were seeded in colonies on the media prepared in point 15.1 above according to a multipoint inoculation in a proportion of 15 000 cfu/spot. The dishes were incubated at 37° C. for 48 hours. The colonies formed were examined visually after incubation for 24 and 48 hours.
(§9) The results are expressed in Tables 7 and 8 hereinafter according to the rules and the nomenclature stated in paragraph 11.3 and where R=pink, RP=pale pink and I=colorless.

[4] = system: Escherichia coli (NCTC 10418); assay: as above; design: key to color of the colony: R=pink; RP=pale pink; I=colorless; conditions: 50 mg/l
Method: as §5, §6, §7, §8, §9

[5] = system: Pseudomonas aerigunosa (NCTC 10038); assay: as above; design: key to color of the colony: R=pink; RP=pale pink; I=colorless; conditions: 50 mg/l
Method: as §5, §6, §7, §8, §9

[6] = system: Micrococcus luteus (NCTC611); assay: as above; design: key to color of the colony: R=pink; RP=pale pink; I=colorless; conditions: 50 mg/l
Method: as §5, §6, §7, §8, §9

[7] = system: Listeria monocytogenes (NCTC 11994); assay: as above; design: key to color of the colony: R=pink; RP=pale pink; I=colorless; conditions: 50 mg/l
Method: as §5, §6, §7, §8, §9

[8] = system: Acinetobacter baumannii (ATCC 19606); assay: as above; design: key to color of the colony: R=pink; RP=pale pink; I=colorless; conditions: 50 mg/l
Method: as §5, §6, §7, §8, §9

Substance: L-alanyl-9-aminobenzo[a]phenoxazin-5-one [Ala-ABP]
- color of the colony (Klebsiella pneumoniae; 24 h): R
- growth diameter (Klebsiella pneumoniae; 24 h): 1 mm
- intensity of coloration, scale 0 to 4 (Klebsiella pneumoniae; 24 h): 3
- color of the colony (Klebsiella pneumoniae; 48 h): R
- growth diameter (Klebsiella pneumoniae; 48 h): 1.5 mm
- intensity of coloration, scale 0 to 4 (Klebsiella pneumoniae; 48 h): 3
- growth diameter (Listeria innocua; 24 h): 0.2 mm
- growth diameter (Listeria innocua; 48 h): 0.3 mm
- color of the colony (Escherichia coli; 24 h): R
- growth diameter (Escherichia coli; 24 h): 1.7 mm
- intensity of coloration, scale 0 to 4 (Escherichia coli; 24 h): 1
- color of the colony (Escherichia coli; 48 h): R
- growth diameter (Escherichia coli; 48 h): 1.8 mm
- intensity of coloration, scale 0 to 4 (Escherichia coli; 48 h): 1
- growth diameter (Candida albicans; 24 h): 0.3 mm
- color of the colony (Candida albicans; 48 h): R
- growth diameter (Candida albicans; 48 h): 0.5 mm
- intensity of coloration, scale 0 to 4 (Candida albicans; 48 h): 2
- color of the colony (Serratia liquefaciens; 24 h): R
- growth diameter (Serratia liquefaciens; 24 h): 0.7 mm
- intensity of coloration, scale 0 to 4 (Serratia liquefaciens; 24 h): 3
- color of the colony (Serratia liquefaciens; 48 h): R
- growth diameter (Serratia liquefaciens; 48 h): 1.3 mm
- intensity of coloration, scale 0 to 4 (Serratia liquefaciens; 48 h): 3
- growth diameter (Enterococcus faecalis; 24 h): 0.3 mm
- growth diameter (Enterococcus faecalis; 48 h): 0.3 mm
- color of the colony (Edwardsiella tarda; 24 h): R
- growth diameter (Edwardsiella tarda; 24 h): 0.5 mm
- intensity of coloration, scale 0 to 4 (Edwardsiella tarda; 24 h): 1
- color of the colony (Edwardsiella tarda; 48 h): R
- growth diameter (Edwardsiella tarda; 48 h): 0.7 mm
- intensity of coloration, scale 0 to 4 (Edwardsiella tarda; 48 h): 3
- growth diameter ([1]; 24 h): 0 mm
- growth diameter ([1]; 48 h): 0 mm
- growth diameter ([2]; 24 h): 0.1 mm
- growth diameter ([2]; 48 h): 0.1 mm
- growth diameter (Candida krusei; 24 h): 0.5 mm
- growth diameter (Candida krusei; 48 h): 1 mm
- growth diameter (Bacillus subtilis; 24 h): 0.1 mm
- growth diameter (Bacillus subtilis; 48 h): 0.5 mm
- color of the colony (Acinetobacter baumanii; 24 h): R
- growth diameter (Acinetobacter baumanii; 24 h): 1.7 mm
- intensity of coloration, scale 0 to 4 (Acinetobacter baumanii; 24 h): 3
- color of the colony (Acinetobacter baumanii; 48 h): R
- growth diameter (Acinetobacter baumanii; 48 h): 1.7 mm
- intensity of coloration, scale 0 to 4 (Acinetobacter baumanii; 48 h): 3
- growth diameter (Saccharomyces cerevisiae; 24 h): 0 mm
- growth diameter (Saccharomyces cerevisiae; 48 h): 0.2 mm
- color of the colony ([3]; 24 h): R
- growth diameter ([3]; 24 h): 3 mm
- color of the colony ([3]; 48 h): R
- growth diameter ([3]; 48 h): 3 mm
- color of the colony ([4]; 24 h): R
- growth diameter ([4]; 24 h): 3 mm
- color of the colony ([4]; 48 h): R
- growth diameter ([4]; 48 h): 3 mm
- color of the colony ([5]; 24 h): R
- growth diameter ([5]; 24 h): 3 mm
- color of the colony ([5]; 48 h): R
- growth diameter ([5]; 48 h): 3 mm
- growth diameter ([6]; 24 h): 0 mm
- growth diameter ([6]; 48 h): 0 mm
- color of the colony ([7]; 24 h): I
- growth diameter ([7]; 24 h): 2 mm
- color of the colony ([7]; 48 h): R
- growth diameter ([7]; 48 h): 2 mm
- color of the colony ([8]; 24 h): R
- growth diameter ([8]; 24 h): 3 mm
- color of the colony ([8]; 48 h): R
- growth diameter ([8]; 48 h): 3 mm
